Data from patent US20230295157A1, “3-(1H-IMIDAZOL-2-YL)-2,3,8,8A-TETRAHYDROINDOLIZIN-5(1H)-ONE DERIVATIVES USEFUL AS FACTOR XIA INHIBITORS” (JANSSEN PHARMACEUTICA NV, priority 2020, published 2023).
Read-outs that look alike come from different tables or passages of the source.

Experiments:
[1] = molecular target: human plasma kallikrein (Homo sapiens (Human), UniProt P03952); test: Kallikrein inhibition assay (FLINT) utilizing a quenched AMC peptide substrate; assay type: biochemical; conditions: 30 min preincubation, kinetic reads over 30 min, Z-Gly-Pro-Arg-AMC substrate 50 μM; read-out: Kallikrein Kin Inh IC50
human plasma kallikrein, sequence (P03952 391-638): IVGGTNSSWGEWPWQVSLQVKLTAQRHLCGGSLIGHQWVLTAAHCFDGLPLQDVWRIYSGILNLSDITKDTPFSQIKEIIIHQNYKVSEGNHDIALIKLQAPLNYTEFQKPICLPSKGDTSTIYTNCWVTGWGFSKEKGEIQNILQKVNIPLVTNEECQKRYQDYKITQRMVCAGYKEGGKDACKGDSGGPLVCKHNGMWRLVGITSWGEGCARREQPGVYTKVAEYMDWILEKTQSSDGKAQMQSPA
human plasma kallikrein, sequence (P03952 20-390 partner): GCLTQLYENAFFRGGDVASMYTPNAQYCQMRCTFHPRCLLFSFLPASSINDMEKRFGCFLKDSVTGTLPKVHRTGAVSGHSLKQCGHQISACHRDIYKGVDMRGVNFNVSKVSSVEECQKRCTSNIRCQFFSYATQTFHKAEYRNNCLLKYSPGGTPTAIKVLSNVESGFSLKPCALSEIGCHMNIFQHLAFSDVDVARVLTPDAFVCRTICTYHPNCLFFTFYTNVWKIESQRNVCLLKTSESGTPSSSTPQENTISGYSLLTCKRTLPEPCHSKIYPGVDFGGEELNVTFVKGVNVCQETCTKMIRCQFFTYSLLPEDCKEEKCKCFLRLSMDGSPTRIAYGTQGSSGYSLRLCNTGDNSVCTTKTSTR
Summary of the method: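 Fluorogenic Z-Gly-Pro-Arg-AMC cleavage (50 μM substrate, 2 nM kallikrein, Tris pH 7.5, CaCl2, BSA, CHAPS, 2% DMSO) read kinetically at 340/440 nm for 30 min after 30-min compound pre-incubation. Compounds in 11-point 3-fold series from 1 μM; percent inhibition fitted to four-parameter equation for IC50.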

[2] = molecular target: Factor XIa (Homo sapiens (Human), UniProt P03951); test: Factor XIa inhibition assay (FLINT) utilizing a fluorophore-quencher pair peptide substrate; assay type: biochemical; conditions: 30 min preincubation, kinetic reads over 30 min, read-out: FXIa Kin Inh IC50
Factor XIa, sequence (P03951 388-625): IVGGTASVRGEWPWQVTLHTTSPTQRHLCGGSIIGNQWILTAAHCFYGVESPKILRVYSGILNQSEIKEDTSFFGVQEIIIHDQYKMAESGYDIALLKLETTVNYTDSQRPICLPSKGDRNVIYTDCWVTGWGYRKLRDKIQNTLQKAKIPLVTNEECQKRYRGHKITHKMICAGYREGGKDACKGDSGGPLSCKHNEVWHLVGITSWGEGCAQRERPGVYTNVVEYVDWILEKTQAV
Factor XIa, sequence (P03951 19-387 partner): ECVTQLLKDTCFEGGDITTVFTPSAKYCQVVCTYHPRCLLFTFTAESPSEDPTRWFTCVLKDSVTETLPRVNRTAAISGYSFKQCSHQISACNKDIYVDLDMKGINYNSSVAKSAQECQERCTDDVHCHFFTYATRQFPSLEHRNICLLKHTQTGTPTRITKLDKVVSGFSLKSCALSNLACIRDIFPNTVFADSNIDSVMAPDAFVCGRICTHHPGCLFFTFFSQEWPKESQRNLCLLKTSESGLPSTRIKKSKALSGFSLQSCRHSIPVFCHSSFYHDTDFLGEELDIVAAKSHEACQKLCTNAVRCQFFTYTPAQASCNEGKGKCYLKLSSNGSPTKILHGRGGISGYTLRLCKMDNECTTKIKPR
Summary of the method: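 FXIa ([…]) preincubated 30 min with compound (11-point 3-fold dilution, top 100 nM, 2% DMSO), then 15 μM quenched FXI Arg146-based peptide added; Tris pH 7.5, CaCl2, BSA, CHAPS. Fluorescence 485/520 nm read kinetically every 5 min over 30 min at RT; IC50 by 4-parameter fit.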

[3] = 5Fam-KLTRAETV-K5Tamra substrate 15 μM
[4] = 5Fam-[…]-K5Tamra substrate 15 μM

| Structure (SMILES) | IC50 [1] | IC50 [2, 3] | IC50 [2, 4] |
| --- | --- | --- | --- |
| O=C1C=C(c2c(-n3cnnn3)ccc(Cl)c2F)C[C@H]2CC[C@@H](c3nc(F)c(-c4ccnc(-n5nccn5)c4)[nH]3)N12 [Example 87, (3S,8aR)-7-[3-chloro-2-fluoro-6-(tetrazol-1-yl)phenyl]-3-[4-fluoro-5-[2-(triazol-2-yl)-4-pyridyl]-1H-imidazol-2-yl]-2,3,8,8a-tetrahydro-1H-indolizin-5-one] | 1.6 nM | 0.9 nM |  |
| O=C(O)c1nccc(-c2cnc([C@@H]3CC[C@@H]4CC(c5cc(Cl)ccc5-n5cc(C(F)(F)F)nn5)=CC(=O)N43)[nH]2)c1F (single isomer, unassigned) [Example 54, 4-(2-((3S*,8aR)-7-(5-chloro-2-(4-(trifluoromethyl)-1H-1,2,3-triazol-1-yl)phenyl)-5-oxo-1,2,3,5,8,8a-hexahydroindolizin-3-yl)-1H-imidazol-5-yl)-3-fluoropicolinic acid] | 67.9 nM |  | 0.8 nM |
| Nc1nccc(-c2cnc([C@@H]3CC[C@@H]4CC(c5cc(Cl)ccc5-n5cnnn5)=CC(=O)N43)[nH]2)c1F (single isomer, unassigned) [Example 90, (3S*,8aR)-3-(5-(2-amino-3-fluoropyridin-4-yl)-1H-imidazol-2-yl)-7-(5-chloro-2-(1H-tetrazol-1-yl)phenyl)-2,3,8,8a-tetrahydroindolizin-5(1H)-one] | 5.5 nM |  | 0.5 nM |
| Nc1ccc(-c2[nH]c([C@@H]3CC[C@@H]4CC(c5cc(Cl)ccc5-n5cnnn5)=CC(=O)N43)nc2F)c(F)n1 [Example 69, (3S,8aR)-3-(5-(6-amino-2-fluoropyridin-3-yl)-4-fluoro-1H-imidazol-2-yl)-7-(5-chloro-2-(1H-tetrazol-1-yl)phenyl)-2,3,8,8a-tetrahydroindolizin-5(1H)-one] | 3.8 nM | 0.3 nM |  |
| O=C1C=C(c2c(-n3cnnn3)ccc(Cl)c2F)C[C@H]2CC[C@H](c3nc(F)c(-c4ccnc(C5(O)CC5)c4)[nH]3)N12 [Example 179, (3R,8aR)-7-(3-chloro-2-fluoro-6-(1H-tetrazol-1-yl)phenyl)-3-(4-fluoro-5-(2-(1-hydroxycyclopropyl)pyridin-4-yl)-1H-imidazol-2-yl)-2,3,8,8a-tetrahydroindolizin-5(1H)-one] | 1.4 nM | 0.5 nM |  |
| O=C1C=C(c2c(-n3cnnn3)ccc(Cl)c2F)C[C@H]2CC[C@@H](c3ncc(-c4ccnc(-n5cccn5)c4)[nH]3)N12 [Example 93, (3S,8aR)-3-(5-(2-(1H-pyrazol-1-yl)pyridin-4-yl)-1H-imidazol-2-yl)-7-(3-chloro-2-fluoro-6-(1H-tetrazol-1-yl)phenyl)-2,3,8,8a-tetrahydroindolizin-5(1H)-one] | 3.1 nM | 10.3 nM |  |
| O=C1C=C(c2c(-n3cnnn3)ccc(Cl)c2F)C[C@H]2CC[C@H](c3ncc(-c4ccnc(-n5cncn5)c4F)[nH]3)N12 (single isomer, unassigned) [Example 112, (3*R,8aR)-7-(3-chloro-2-fluoro-6-(1H-tetrazol-1-yl)phenyl)-3-(5-(3-fluoro-2-(1H-1,2,4-triazol-1-yl)pyridin-4-yl)-1H-imidazol-2-yl)-2,3,8,8a-tetrahydroindolizin-5(1H)-one] | 20.6 nM | 9.6 nM |  |
| O=C1CCc2cc(-c3cnc([C@@H]4CC[C@@H]5CC(c6cc(Cl)ccc6-n6cc(C(F)(F)F)nn6)=CC(=O)N54)[nH]3)ccc2N1 [Example 97, 6-(2-((3S,8aR)-7-(5-chloro-2-(4-(trifluoromethyl)-1H-1,2,3-triazol-1-yl)phenyl)-5-oxo-1,2,3,5,8,8a-hexahydroindolizin-3-yl)-1H-imidazol-5-yl)-3,4-dihydroquinolin-2(1H)-one] | 4.6 nM | 1.6 nM |  |

Now from value to molecule:

| IC50 [1] | IC50 [2, 3] | IC50 [2, 4] | Structure (SMILES) |
| --- | --- | --- | --- |
| 27.7 nM | 1.4 nM |  | COc1c(-c2cnc(C3CC[C@H]4CC(c5c(-n6cnnn6)ccc(Cl)c5F)=CC(=O)N34)[nH]2)ccnc1N (stereo in doubt) [Example 382, (3R,8aS)-3-(5-(2-amino-3-methoxypyridin-4-yl)-1H-imidazol-2-yl)-7-(3-chloro-2-fluoro-6-(1H-tetrazol-1-yl)phenyl)-2,3,8,8a-tetrahydroindolizin-5(1H)-one] |
| 16.9 nM |  | 0.7 nM | [2H]c1cc(Cl)cc(C2=CC(=O)N3[C@H](CC[C@@H]3c3ncc(-c4ccc(N)nc4F)[nH]3)C2)c1-n1cnnn1 (single isomer, unassigned) [Example 121] |
| 4.9 nM | 0.3 nM |  | Nc1ccc(-c2cnc([C@@H]3CC[C@H]4CC(c5c(-n6cnnn6)ccc(Cl)c5F)=CC(=O)N43)[nH]2)c(Cl)n1 [Example 352, (3S,8aS)-3-(5-(6-Amino-2-chloropyridin-3-yl)-1H-imidazol-2-yl)-7-(3-chloro-2-fluoro-6-(1H-tetrazol-1-yl)phenyl)-2,3,8,8a-tetrahydroindolizin-5(1H)-one] |
| 11.8 nM |  | 0.5 nM | CC(=O)Nc1ccccc1-c1cnc([C@@H]2CC[C@H]3CC(c4c(-n5cnnn5)ccc(Cl)c4F)=CC(=O)N32)[nH]1 (relative stereo) [Example 306, N-(2-(24(3S,8aS*)-7-(3-Chloro-2-fluoro-6-(1H-tetrazol-1-yl)phenyl)-5-oxo-1,2,3,5,8,8a-hexahydroindolizin-3-yl)-1H-imidazol-4-yl)phenyl)acetamide] |
| 10.7 nM | 6.2 nM |  | C[C@H](Oc1nccc(-c2cnc([C@@H]3CC[C@@H]4CC(c5c(-n6cnnn6)ccc(Cl)c5F)=CC(=O)N43)[nH]2)c1F)c1ncco1 (single isomer, unassigned) [Example 142, (3*S,8a*R)-7-(3-chloro-2-fluoro-6-(1H-tetrazol-1-yl)phenyl)-3-(5-(3-fluoro-2-((*S)-1-(oxazol-2-yl)ethoxy)pyridin-4-yl)-1H-imidazol-2-yl)-2,3,8,8a-tetrahydroindolizin-5(1H)-one] |
| 0.7 nM | 0.3 nM |  | O=C1C=C(c2c(-n3cnnn3)ccc(Cl)c2F)CC2CC[C@@H](c3ncc(-c4ccc5[nH]c(=O)ccc5c4)[nH]3)N12 (stereo partly drawn) [Example 261, 6-[2-[(3S)-7-[3-Chloro-2-fluoro-6-(tetrazol-1-yl)phenyl]-5-oxo-2,3,8,8a-tetrahydro-1H-indolizin-3-yl]-1H-imidazol-5-yl]-1H-quinolin-2-one] |
| 1.9 nM | 0.3 nM |  | COC(=O)Nc1ccc(-c2cnc([C@@H]3CC[C@H]4CC(c5c(-n6cnnn6)ccc(Cl)c5F)=CC(=O)N43)[nH]2)cc1 [Example 340, Methyl (4-(2-((3S,8aS)-7-(3-chloro-2-fluoro-6-(1H-tetrazol-1-yl)phenyl)-5-oxo-1,2,3,5,8,8a-hexahydroindolizin-3-yl)-1H-imidazol-5-yl)phenyl)carbamate] |
| > 100 nM |  | 33.6 nM | Nc1ccccc1-c1cnc([C@@H]2CC[C@@H]3CC(c4c(-n5cnnn5)ccc(Cl)c4F)=CC(=O)N32)[nH]1 (relative stereo) [Example 310, (3S,8aR*)-3-(4-(2-Aminophenyl)-1H-imidazol-2-yl)-7-(3-chloro-2-fluoro-6-(1H-tetrazol-1-yl)phenyl)-2,3,8,8a-tetrahydroindolizin-5(1H)-one] |
| 8.6 nM | 0.6 nM |  | [2H]c1cc(N)nc(F)c1-c1[nH]c([C@@H]2CC[C@@H]3CC(c4c(-n5cnnn5)ccc(Cl)c4F)=CC(=O)N32)nc1[2H] [Example 148, (3S,8aR)-3-[5-(6-amino-4-deuterio-2-fluoro-3-pyridyl)-4-deuterio-1H-imidazol-2-yl]-7-[3-chloro-2-fluoro-6-(tetrazol-1-yl)phenyl]-2,3,8,8a-tetrahydro-1H-indolizin-5-one] |
| 0.6 nM | 1 nM |  | NC(=O)c1cc(-c2cnc([C@@H]3CC[C@@H]4CC(c5c(-n6cnnn6)ccc(Cl)c5F)=CC(=O)N43)[nH]2)cs1 [Example 234, 4 (2-((3S,8aR)-7-(3-Chloro-2-fluoro-6-(1H-tetrazol-1-yl)phenyl)-5-oxo-1,2,3,5,8,8a-hexahydroindolizin-3-yl)-1H-imidazol-5-yl)thiophene-2-carboxamide] |
| 7.8 nM | 17.2 nM |  | O=C1C=C(c2c(-n3cnnn3)ccc(Cl)c2F)C[C@H]2CC[C@H](c3ncc(-c4ccnc(N5CCC[C@H](O)C5)c4F)[nH]3)N12 [Example 188, (3R,8aR)-7-(3-chloro-2-fluoro-6-(1H-tetrazol-1-yl)phenyl)-3-(5-(3-fluoro-2-((S)-3-hydroxypiperidin-1-yl)pyridin-4-yl)-1H-imidazol-2-yl)-2,3,8,8a-tetrahydroindolizin-5(1H)-one] |
| 1.3 nM | 0.2 nM |  | COC(=O)Nc1ccc(-c2cnc([C@@H]3CC[C@@H]4CC(c5c(-n6cnnn6)ccc(Cl)c5F)=CC(=O)N43)[nH]2)cc1 [Example 341, Methyl (4-(2-((3S,8aR)-7-(3-chloro-2-fluoro-6-(1H-tetrazol-1-yl)phenyl)-5-oxo-1,2,3,5,8,8a-hexahydroindolizin-3-yl)-1H-imidazol-5-yl)phenyl)carbamate] |
| 0.7 nM | 0.3 nM |  | O=C(Nc1ccccc1-c1cnc([C@@H]2CC[C@@H]3CC(c4c(-n5cnnn5)ccc(Cl)c4F)=CC(=O)N32)[nH]1)C1CC1 [Example 307, N-(2-(2-((3S,8aR)-7-(3-Chloro-2-fluoro-6-(1H-tetrazol-1-yl)phenyl)-5-oxo-1,2,3,5,8,8a-hexahydroindolizin-3-yl)-1H-imidazol-4-yl)phenyl)cyclopropanecarboxamide] |
